The target in the experiment is T1, iRFP713 (Rhodopseudomonas palustris, UniProt G1FNL7, C15S).
T1 construct: gene iRFP; N-terminal polyhistidine tag; E. coli LMG194 with heme oxygenase; dimer
Briefly: zinc-staining SDS-PAGE, absorption/fluorescence spectra, GdnHCl unfolding. The following applies: noncovalent; GAF pocket; no BV-binding Cys.

As to `C=CC1=C(C)C(=Cc2[nH]c(C=C3N=C(C=C4NC(=O)C(C)=C4C=C)C(C)=C3CCC(=O)O)c(CCC(=O)O)c2C)NC1=O` [biliverdin IXα], the “zinc-staining SDS-PAGE, absorption/fluorescence spectra, GdnHCl unfolding” value is “BV was the most weakly associated with NIR FP variants having no Cys residues”.

The values above are taken from paper PMC4698714, “Allosteric effects of chromophore interaction with dimeric near-infrared fluorescent proteins engineered from bacterial phytochromes” (Scientific Reports, 2016).
